14 compounds from patent publication US9018214B2, “Bicyclic heterocycle compounds and their uses in therapy” (Astex Therapeutics Limited, priority 2011, dated 2015) can be followed below.

Structures can show the parent of a compound that is named as a salt. Where two headings read alike, the source gives them in different places.

Experiment [1] deals with BIR3 domain of human cIAP-1 (residues 267-363) (Homo sapiens (Human), UniProt Q13490). Put plainly: cIAP-1 in vitro competitive displacement binding assay (fluorescence polarization; Probe A AVPIK(5&6FAM)-amide or Probe B AbuRPFK(5&6FAM)-amide). As to conditions: for inhibition at […]: 3 h, read-out: IC50 or PI cIAP1: PI.
For experiment [2], the system named is EVSA-T (human breast carcinoma). Put plainly: Anti-proliferative activity, Alamar Blue assay, EVSA-T. The format is cell-based. As to conditions: Homo sapiens, EVSA-T, read-out: EVSA-T prolif (EC50).
Experiment [3] concerns the target BIR3 domain of human XIAP (residues 252-350) (Homo sapiens (Human), UniProt P98170). Put plainly: XIAP in vitro competitive displacement binding assay (fluorescence polarization). The conditions noted are these: for IC50: read-out: IC50 or PI Xiap: IC50; for inhibition at 0.04 µM: 1 h, read-out: IC50 or PI Xiap: PI. Background: Polarisation of emitted light reports the rotation of a fluorescent probe.

Setting [4] is: Probe B AbuRPFK(5&6FAM)-amide, read-out: IC50 or PI cIAP1: IC50.

A word on the EC50: it is the concentration that produces a half-maximal response. One may read the IC50 as the midpoint of a concentration-inhibition curve. Regarding `C[C@@H]1CN(CC(=O)N2CC(C)(C)c3cnc(Cc4ccc(F)cc4F)cc32)[C@@H](Cn2ccncc2=O)CN1` [Example 195, 1-{[(2R,5R)-1-(2-{6-[(2,4-Difluorophenyl)methyl]-3,3-dimethyl-1H,2H,3H-pyrrolo[3,2-c]pyridin-1-yl}-2-oxoethyl)-5-methylpiperazin-2-yl]methyl}-1,2-dihydropyrazin-2-one dihydrochloride], the inhibition at […] in experiment [1] was found to be 96%. The EC50 in experiment [2] (72 h) came to 36 nM. In experiment [3], the IC50 turned out to be 67 nM.
As to `C[C@@H]1CN(CC(=O)N2CC(C)(C)c3cnc(C(F)(F)c4ccccc4)cc32)[C@@H](CN2CCN(C)C2=O)CN1` [Example 197, 1-{[(2R,5R)-1-(2-{6-[Difluoro(phenyl)methyl]-3,3-dimethyl-1H,2H,3H-pyrrolo[3,2-c]pyridin-1-yl}-2-oxoethyl)-5-methylpiperazin-2-yl]methyl}-3-methylimidazolidin-2-one hydrochloride], the inhibition at […] in experiment [1] (Probe B, @ 0.012 μM) came to 76%. Further, in experiment [2] (72 hours, Alamar Blue), the EC50 amounted to 49 nM. The inhibition at 0.04 µM in experiment [3] was found to be 68%.
Regarding `CCC(F)(F)c1cc2c(cn1)C(C)(C)CN2C(=O)CN1C[C@@H](C)NC[C@@H]1CN1CCCC1=O` [Example 198, 1-{[(2R,5R)-1-{2-[6-(1,1-Difluoropropyl)-3,3-dimethyl-1H,2H,3H-pyrrolo[3,2-c]pyridin-1-yl]-2-oxoethyl}-5-methylpiperazin-2-yl]methyl}pyrrolidin-2-one], the IC50 in experiment [1] was below 1000 nM; in experiment [1] (setting [4]), 23 nM. Also, the EC50 in experiment [2] (72 hours, Alamar Blue) turned out to be 880 nM. In addition, the inhibition at 0.04 µM in experiment [3] came to 69%.
On to `C[C@@H]1CN(CC(=O)N2CC(C)(C)c3ncc(Cc4ccc(F)cc4F)cc32)[C@@H](CN2CCOC2=O)CN1` [Example 200, 3-{[(2R,5R)-1-(2-{6-[(2,4-Difluorophenyl)methyl]-3,3-dimethyl-1H,2H,3H-pyrrolo[3,2-b]pyridin-1-yl}-2-oxoethyl)-5-methylpiperazin-2-yl]methyl}-1,3-oxazolidin-2-one dihydrochloride], for which the inhibition at […] in experiment [1] stood at 96%. The EC50 in experiment [2] (72 h) amounted to 8.8 nM. Moreover, the IC50 in experiment [3] is 74 nM.
In the case of `C[C@@H]1CN(CC(=O)N2CC(C)(C)c3nnc(Cc4ccc(F)cc4F)cc32)[C@@H](CN2CCCC2=O)CN1` [Example 201, 1-{[(2R,5R)-1-(2-{3-[(2,4-Difluorophenyl)methyl]-7,7-dimethyl-5H,6H,7H-pyrrolo[3,2-c]pyridazin-5-yl}-2-oxoethyl)-5-methylpiperazin-2-yl]methyl}pyrrolidin-2-one hydrochloride], the inhibition at […] in experiment [1] (Probe B, @ 0.012 μM) amounted to 88%. Moreover, the EC50 in experiment [2] (72 hours, Alamar Blue) came out at 5.2 nM. Besides, the IC50 in experiment [3] is 81 nM.
On to `C[C@@H]1CN(CC(=O)N2CC(C)(C)c3cnc(Cc4ccc(F)cc4F)cc32)[C@@H](CN2CC[C@H](F)C2)CN1` [Example 202, 1-{6-[(2,4-Difluorophenyl)methyl]-3,3-dimethyl-1H,2H,3H-pyrrolo[3,2-c]pyridin-1-yl}-2-[(2R,5R)-2-{[(3S)-3-fluoropyrrolidin-1-yl]methyl}-5-methylpiperazin-1-yl]ethan-1-one diydrochloride], for which, in experiment [1] (Probe B, @ 0.012 μM), the inhibition at […] stood at 88%. Further, the concentration for a half-maximal effect (EC50) in experiment [2] (72 h) came to 2.1 nM. Moreover, the IC50 in experiment [3] was determined as 77 nM.
For `C[C@@H]1CN(CC(=O)N2CC(C)(C)c3cnc(Cc4ccc(F)cc4F)cc32)[C@@H](CN2CC[C@@H](F)C2)CN1` [Example 203, 1-{6-[(2,4-Difluorophenyl)methyl]-3,3-dimethyl-1H,2H,3H-pyrrolo[3,2-c]pyridin-1-yl}-2-[(2R,5R)-2-{[(3R)-3-fluoropyrrolidin-1-yl]methyl}-5-methylpiperazin-1-yl]ethan-1-one dihydrochloride], the inhibition at […] in experiment [1] stood at 97%. Further, in experiment [2] (72 h), the EC50 is 3.2 nM. In addition, the IC50 in experiment [3] amounted to 73 nM.
`C[C@@H]1CN(CC(=O)N2CC(C)(C)c3ncc(Cc4ccc(F)cc4F)cc32)[C@@H](CN2CC[C@H](F)C2)CN1` [Example 204, 1-{6-[(2,4-Difluorophenyl)methyl]-3,3-dimethyl-1H,2H,3H-pyrrolo[3,2-b]pyridin-1-yl}-2-[(2R,5R)-2-{[(3S)-3-fluoropyrrolidin-1-yl]methyl}-5-methylpiperazin-1-yl]ethan-1-one dihydrochloride]: the inhibition at […] in experiment [1] worked out at 91%. Moreover, the EC50 in experiment [2] (72 h) is 21 nM. For the same compound, in experiment [3], the IC50 was 110 nM.
As for `C[C@@H]1CN(CC(=O)N2CC(C)(C)c3ncc(Cc4ccc(F)cc4F)cc32)[C@@H](CN2CC[C@@H](F)C2)CN1` [Example 205, 1-{6-[(2,4-Difluorophenyl)methyl]-3,3-dimethyl-1H,2H,3H-pyrrolo[3,2-b]pyridin-1-yl}-2-[(2R,5R)-2-{[(3R)-3-fluoropyrrolidin-1-yl]methyl]-5-methylpiperazin-1-yl]ethan-1-one hydrochloride], the inhibition at […] in experiment [1] (Probe B, @ 0.012 μM) is 97%. The 50% effective concentration (EC50) in experiment [2] (72 hours, Alamar Blue) was 19 nM. Moreover, the IC50 in experiment [3] was determined as 100 nM.
For `Cc1nc(C)n(C[C@H]2CN[C@H](C)CN2CC(=O)N2CC(C)(C)c3cnc(Cc4ccc(F)cc4F)cc32)n1` [Example 206, 1-{6-[(2,4-Difluorophenyl)methyl]-3,3-dimethyl-1H,2H,3H-pyrrolo[3,2-c]pyridin-1-yl}-2-[(2R,5R)-2-[(dimethyl-1H-1,2,4-triazol-1-yl)methyl]-5-methylpiperazin-1-yl]ethan-1-one hydrochloride] the same measures were 97%, 1.7 nM and 79 nM.
`C[C@@H]1CN(CC(=O)N2CC(C)(C)c3cnc(Cc4ccc(F)cc4F)cc32)[C@@H](CN2CCC(=O)C2)CN1` [Example 207, 1-{[(2R,5R)-1-(2-{6-[(2,4-Difluorophenyl)methyl]-3,3-dimethyl-1H,2H,3H-pyrrolo[3,2-c]pyridin-1-yl}-2-oxoethyl)-5-methylpiperazin-2-yl]methyl}pyrrolidin-3-one dihydrochloride]: the inhibition at […] in experiment [1] came to 98%. Further, the EC50 in experiment [2] (72 h) was determined as 4 nM. In experiment [3], the IC50 came out at 57 nM.
On to `C[C@@H]1CN(CC(=O)N2CC(C)(C)c3cnc(Cc4ccc(F)cc4F)cc32)[C@@H](CN2CCC(F)(F)C2)CN1` [Example 208, 1-{6-[(2,4-Difluorophenyl)methyl]-3,3-dimethyl-1H,2H,3H-pyrrolo[3,2-c]pyridin-1-yl}-2-[(2R,5R)-2-[(3,3-difluoropyrrolidin-1-yl)methyl]-5-methylpiperazin-1-yl]ethan-1-one dihydrochloride], for which the inhibition at […] in experiment [1] is 99%. For the same compound, in experiment [2] (72 h), the EC50 was found to be 4 nM. Besides, the IC50 in experiment [3] amounted to 64 nM.
The corresponding values for `C[C@@H]1CN(CC(=O)N2CC(C)(C)c3cnc(Cc4ccc(F)cc4F)cc32)[C@@H](CN2CCOC2=O)CN1` [Example 209, 3-{[(2R,5R)-1-(2-{6-[(2,4-Difluorophenyl)methyl]-3,3-dimethyl-1H,2H,3H-pyrrolo[3,2-c]pyridin-1-yl}-2-oxoethyl)-5-methylpiperazin-2-yl]methyl}-1,3-oxazolidin-2-one dihydrochloride] are 90%, 19 nM and 47 nM.
As to `CC(C)C(F)(F)c1cc2c(cn1)C(C)(C)CN2C(=O)CN1C[C@@H](C)NC[C@@H]1CN1CCCC1=O` [Example 211, 1-{[(2R,5R)-1-{2-[6-(1,1-Difluoro-2-methylpropyl)-3,3-dimethyl-1H,2H,3H-pyrrolo[3,2-c]pyridin-1-yl]-2-oxoethyl}-5-methylpiperazin-2-yl]methyl}pyrrolidin-2-one hydrochloride], the IC50 is below 1000 nM in experiment [1], 22 nM in experiment [1] (setting [4]) and 46 nM in experiment [3]. Also, the half-maximal effective concentration (EC50) in experiment [2] (72 hours, Alamar Blue) worked out at 630 nM.
